Reference: patent publication US10111847B2, “Compounds and methods for modulating vascular injury” (The Regents of the University of California, priority 2012, dated 2018)

Tested on: rabbit femoral arteries
Assay: Rabbit femoral artery balloon injury, acute response at 3 days
Format: in vivo, New Zealand White Rabbits
Method: All animal experiments are performed under a protocol approved by University of California San Francisco Animal Care Committee. New Zealand White Rabbits (NZWR, Western Oregon Rabbit Company, Philomath, Oreg.) weighing 3 to 5 kg and maintained on a normal chow diet are used in all experiments. Animals are anesthetized for surgical procedures with intramuscular injection of ketamine (25 mg/kg) and xylazine (5 mg/kg), and maintained with inhalation of isoflurane. The balloon injury model is made as described by Conte et al. “Efficient repopulation of denuded rabbit arteries with autologous genetically modified endothelial cells,” Circulation. 1994; 89:2161-2169. Rabbits undergo bilateral external iliac and femoral artery injury with 2F Fogarty balloon catheter (Applied Medical Resources Corp. Rancho Santa Margarita, Calif.). After balloon injury RvD2 (10 nM, Cayman chemical, Ann Arbor, Mich.) is infused to luminal area of the right femoral artery and control vehicle (normal saline with 0.1% ethanol) is infused to the left femoral artery, and then left undisturbed for 20 minutes. For evaluation of acute effects the rabbits are euthanized at 3 days after injury by intravenous overdose of sodium Nembutal. The femoral arteries are harvested and cryosection is made for immunohistochemistry, and total RNA from treated and control tissue is isolated. For evaluation of subacute responses regarding intimal hyperplasia the rabbits are euthanized at 28 days after injury and the tissue is perfusion-fixed in 10% formalin and processed as described by Conte et al. Arterioscler Thromb Vasc Biol. 2005; 25:2081-2087.
All the immunofluorescent staining is completed on 6-μm-thick frozen sections fixed by ice cold acetone for 10 minutes. Goat anti-mouse IgG conjugated with Alexa Fluor 488 or 568 (1:100, respectively, Invitrogen) is selected as secondary antibody. Anti-Ki67 (1:100, NCL-L-Ki67-MM1, Novocastra Laboratories, Newcastle upon Tyne, UK) is utilized for cell proliferation detection. […] The proportion of Ki67 is calculated by absolute positive cell number divided by DAPI positive nuclei. Leukocyte infiltration index is calculated as number of nuclei in CD45 positive area divided by total number of DAPI positive nuclei.
RvD1. […] Fluorescence was detected with TRITC filter allowing the detection of the DHE emission wavelength of 590-620 nm. The fluorescence lamp gain is standardized for all images and analyses. Fluorescence quantitation is performed using ImageJ analysis software (National Institute of Health, Bethesda, Md.). For VSMC the fluorescence intensity is determined for the DHE-stained control cells (no treatment control) from each experimental group and then individual treated cells from the same group are normalized to the corresponding value. […]

CC/C=C\C[C@H](O)[C@H](O)/C=C/C=C/C=C\C=C\[C@@H](O)C/C=C\CCC(=O)O [RvD2, resolvin D2]
Cell proliferation (Ki-67 staining index), % inhibition vs control (10 nM intraluminal 20 minutes, 3 days after injury, P<0.01): 51%
leukocyte infiltration (CD45 staining), % inhibition (10 nM intraluminal 20 minutes, 3 days after injury, P<0.05): 41%
TNF-α, MCP-1, and IL-1α expression in treated arteries vs vehicle (qPCR) (10 nM intraluminal, 3 days after injury): significant reductions
injury-induced ROS production (DHE staining), % inhibition (rabbit arteries 3 days after balloon injury, P<0.05): 43%
